According to paper PMC11995503 (Molecular Cancer, 2025):

Key:
BP-CML = BP-CML cohort, cited from earlier work
[1] = life-threatening side effects; cited from earlier work
KDR/VEGFR2 = test: KDR inhibition; format: biochemical

Which results are given for Cc1ccc(C(=O)Nc2ccc(CN3CCN(C)CC3)c(C(F)(F)F)c2)cc1C#Cc1cnc2cccnn12 [Ponatinib]?
patients achieving a major cytological response (BP-CML; within six months): 23%; median overall survival (BP-CML): seven; arterial obstruction [1]: 33%; heart failure [1]: 9%; thromboembolism [1]: 6%; KDR inhibition potency relative to KF1601 (KDR/VEGFR2): tenfold greater
